According to US20240269302A1, “NANOPARTICLE COMPRISING PEPTIDE-LIPID CONJUGATE FOR DELIVERING OLIGONUCLEOTIDE INTO TARGET CELL AND PHARMACEUTICAL COMPOSITION COMPRISING SAME” (NIBEC CO., LTD., priority 2021, published 2024):

System: KRAS mRNA
Assay: Reduction of KRAS mRNA by KRAS siRNA delivered into cells, quantitative real-time PCR
Format: cell-based, human
Settings: H358 cells, 100 nM, 16 hours, qRT-PCR, 18S rRNA as housekeeping gene
Procedure: H358 cells were seeded at a density of 70% in a 6-well plate. After 16 hours, cell starvation was performed overnight with DMEM containing 0.5% FBS. The cells were treated with a medium containing nanoparticles comprising KRAS siRNA and a peptide-lipid conjugate at a concentration of 100 nM for 16 hours. As a control, 100 nM of siRNA mixed with Lipofectamine was used.
Quantitative real-time PCR was performed in the following manner. For mRNA quantification, total RNA was isolated using the Qiagen RNeasy kit. cDNA was synthesized using Verso cDNA kit (Thermo Scientific) using 500 ng RNA. mRNA values were measured with a 7500 Fast Real-Time PCR System (Applied Biosystems) based on SYBR Green.
18S rRNA was used as a housekeeping gene (control gene). PCR was performed using reverse-transcribed RNA and 100 ng/μL of sense and antisense primers (total volume 20 μL) were used. 40 cycles were performed and each cycle included denaturation at 95° ° C. for 15 seconds, annealing for 1 minute, and extension at 60° ° C.

Substance: siRNA alone: siRNA that inhibits the expression of KRAS (SEQ ID NO: 19 sense, SEQ ID NO: 20 antisense), without carrier (sense CAGCUAAUUCAGAAUCAUU; antisense AAUGAUUCUGAAUUAGCUG; listed as RNA, chemistry not given here)
- KRAS mRNA: no effect
